Values joined by “and” are separate entries in the source; they are usually repeats but may differ in a detail not shown here. Equal entries are not always repeated.
Assays:
[1] = system: peroxisome proliferator activated receptor gamma (PPARγ); assay: PPARγ transcript levels in mouse liver and spleen; format: in vivo, mice; conditions: day 7 of infection
Experimental: For mosquito immune gene expression, 20 midguts were dissected from mosquitoes in each treatment group at 1, 2, 4, 6, 8 and 24 hours post-feeding. Midguts were sonicated and stored in Trizol at −20° C. for up to a week before RNA was extracted according to manufacturer's instructions. cDNA synthesis was carried out using QantiTect Reverse Transcription Kit (Qiagen) and 200 ng of cDNA used per reaction for qRT-PCR with Sybr Green (Applied Biosystems). Fold changes in expression levels were calculated using the comparative threshold cycle method. Data were normalized to the housekeeping gene ribosomal protein S7 and to the control treatment. Primers and cycling conditions for AsNOS, defensin, LRIM, TEP1, and APL1 were as previously described (Hauck E S, et al. Microbes Infect. 2013; 15:775-87). For gene expression analysis of mouse liver and spleen, organs were flash frozen after necropsy and stored at −80° C. before RNA was extracted in Trizol and cDNA synthesized. Real-time PCR was performed using TaqMan probe-based expression assays for mouse NOS2, PPARγ (Mm00440940), and β-actin (Applied Biosystems) with volumes and cycling conditions as previously described (Chau et al., Infect Immun, 2013, 81:3515-26). Samples were analyzed in triplicate with 250 ng of cDNA per reaction to confirm uniformity of amplification. […] All expression data were analyzed by one sample t-test.

gsk3 = gsk3 phosphorylation in mosquito midgut; format: in vivo, Anopheles stephensi; conditions: midguts of ABA-treated, P. falciparum-fed mosquitoes
Experimental: Fold change is shown in levels of phosphorylated AMPK (FIG. 13A), and gsk3 (FIG. 13B) in the midguts of ABA-treated, P. falciparum-fed mosquitoes compared to controls. Each dot represents one replicate of 15 pooled midguts. Data were analyzed by one sample t-test. * p<0.05.

ILP3 and ILP4 = assay: Insulin-like peptide mRNA levels in mosquito midgut; format: in vivo, Anopheles stephensi; conditions: P. falciparum-fed mosquitoes
Experimental: FIG. 14A-B illustrate that ABA reduces insulin-like peptide expression in the midgut. Specifically, mRNA levels are shown of ILP3 (FIG. 14A) and ILP4 (FIG. 14B) in ABA-treated, P. falciparum-fed mosquito midguts. Data are shown as fold change compared to control-treated mosquitoes. Each dot represents one replicate of 10 pooled midguts. Data were analyzed by one sample t-test. * p<0.05.

[2] = system: prospero, escargot, ATG6, ATG8; assay: Expression of midgut epithelial cell turnover genes; format: in vivo, Anopheles stephensi; conditions: P. falciparum-fed mosquito midguts
Experimental: Data are shown as fold changed compared to control-treated mosquitoes. Each dot represents one replicate of 10 pooled midguts. Data were analyzed by one sample t-test. * p<0.05. nd indicates the prospero was not detectable at 72 or 96 hours.

Anopheles stephensi = assay: Mosquito lifespan with weekly ABA-supplemented bloodmeals; format: in vivo
Experimental: Median survival of control and ABA-treated mosquitoes from five lifespans in which mosquitoes received a weekly control or ABA-supplemented uninfected bloodmeal. Each lifespan was conducted with 300 female mosquitoes per treatment. Data were analyzed by Wilcoxon matched-pairs signed rank test.
FIG. 17A is a survival curve of mosquitoes provided weekly control or ABA-supplemented uninfected bloodmeals and maintained on 3% sucrose solution. FIG. 17B is a survival curve of P. falciparum-infected mosquitoes provided control or ABA-supplemented weekly bloodmeals. Infection status was determined by detection of PfCOX in individual mosquitoes by qRT-PCR. Data were analyzed by log-rank test and Gehan-Breslow-Wilcoxon test.

[3] = Small animal chemistry panel of plasma; format: in vivo, mice
Experimental: (§1) FIG. 19A-C through FIG. 28A-B and Tables 6-1 through 6-4 support the use of ABA for treating Plasmodium-infected mammalian subjects. In the following tables, 4-5 mice were used per treatment, and data were analyzed by unpaired t-test. […] Abbreviations for Tables 6-3 and 6-4 are as follows: WBC=white blood cells, RBCs=red blood cells, MCV=mean corpuscular volume, MCH=mean corpuscular hemoglobin, MCHC=mean corpuscular hemoglobin concentration, RDW=red blood cell distribution width, MPV=mean platelet volume.

Complete blood counts = format: in vivo, mice
Experimental: as §1

[4] = system: parasite-specific IgG and IgG1; assay: Western blot of infected RBC protein probed with mouse plasma; format: in vivo; conditions: P. yoelii-infected mice
From the text: FIG. 26A-C illustrate that ABA-supplementation increased levels of parasite-specific IgG and IgG1 in mouse plasma. Shown are western blots of protein from uninfected and P. yoelii-infected RBCs probed with plasma from uninfected, P. yoelii-infected, ABA-supplemented P. yoelii-infected mice followed by IgG1 (FIG. 26A) and total IgG (FIG. 26B) secondary antibodies. Also shown is a densitometry analysis (FIG. 26C) of IgG1- and total IgG-bound protein from infected RBCs. Data are shown as fold change between control P. yoelii and ABA-supplemented P. yoelii plasma.

human macrophages = conditions: in vitro; cited from earlier work
[5] = system: inflammatory bowel disease (IBD); conditions: ABA supplementation; cited from earlier work
[6] = uninfected and P. yoelii-infected mice
[7] = uninfected and infected mice, day 11 post-infection
[8] = P. yoelii infection, day 11 post-infection

For `CC1=CC(=O)CC(C)(C)[C@@]1(O)/C=C/C(C)=C\C(=O)O` (racemic) [ABA, (2Z,4E)-5-[(1S)-1-hydroxy-2,6,6-trimethyl-4-oxocyclohex-2-en-1-yl]-3-methylpenta-2,4-dienoic acid], the “transcript levels of PPARγ” value [1] was “increased”, the “phosphorylation of gsk3” value (gsk3) was “alters phosphorylation” and the insulin-like peptide expression (ILP3 and ILP4) was “reduces”. The “expression of genes involved in midgut epithelial cell turnover” value [2] was “reduces expression”, the mosquito lifespan (Anopheles stephensi; P. falciparum-infected mosquitoes) was “does not alter” and the mosquito median survival (Anopheles stephensi; five lifespans, weekly uninfected bloodmeal) was “does not alter”. For the same molecule, the “Median Survival” value (Anopheles stephensi; mosquitoes, weekly ABA-supplemented uninfected bloodmeal, replicates 1-5) was 23 days and 16 days (2×) and 21 days and 18 days, the mosquito lifespan (Anopheles stephensi; nutrient stress: maintained on 3% sucrose solution) was “does not alter” and the “alanine transaminase, Mean” value ([3]; P. yoelii-infected mice) was 30.23 U/L. The “albumin, Mean” value ([3]; P. yoelii-infected mice) was 2.25 g/dL, the “aspartate transaminase, Mean” value ([3]; P. yoelii-infected mice) was 194.7 U/L and the “creatine, Mean” value ([3]; P. yoelii-infected mice) was 0.18 mg/dL. For the same molecule, the “phosphorus, Mean” value ([3]; P. yoelii-infected mice) was 8.43 mg/dL, the “total bilirubin, Mean” value ([3]; P. yoelii-infected mice) was 0.26 mg/dL and the “total protein, Mean” value ([3]; P. yoelii-infected mice) was 4.12 g/dL. The “liver function (blood urea nitrogen levels in plasma)” value ([3]; day 11 post-infection) was “improved”, the “plasma indicators of organ health” value [3, 6] was “no effect” and the “glucose levels in mouse plasma” value [3, 7] was “does not alter”. For the same molecule, the “insulin levels in mouse plasma” value [3, 7] was “does not alter”, the “alanine transaminase, Mean” value ([3]; uninfected mice) was 176.8 U/L and the “albumin, Mean” value ([3]; uninfected mice) was 3.23 g/dL. The “aspartate transaminase, Mean” value ([3]; uninfected mice) was 1437 U/L, the “blood urea nitrogen, Mean” value ([3]; uninfected mice) was 28.76 mg/dL and the “creatine, Mean” value ([3]; uninfected mice) was 0.21 mg/dL. For the same molecule, the “phosphorus, Mean” value ([3]; uninfected mice) was 10.07 mg/dL, the “total bilirubin, Mean” value ([3]; uninfected mice) was 0.06 mg/dL and the “total protein, Mean” value ([3]; uninfected mice) was 4.67 g/dL. For the same molecule, the “percentage of basophils in whole blood” value (Complete blood counts; [8]) was “partially rescues decrease”, the “percentage of eosinophils in whole blood” value (Complete blood counts; [8]) was “partially rescues decrease” and the “% RDW, Mean” value (Complete blood counts; P. yoelii-infected mice) was 34.95%. For the same molecule, the “% hematocrit, Mean” value (Complete blood counts; P. yoelii-infected mice) was 21.00%, the “% lymphocytes, Mean” value (Complete blood counts; P. yoelii-infected mice) was 69.22% and the “% monocytes, Mean” value (Complete blood counts; P. yoelii-infected mice) was 5.31%. For the same molecule, the “% neutrophils, Mean” value (Complete blood counts; P. yoelii-infected mice) was 22.8%, the “MCHC, Mean” value (Complete blood counts; P. yoelii-infected mice) was 34.73 g/dL and the “MCV, Mean” value (Complete blood counts; P. yoelii-infected mice) was 55.20 fL. The “MPV, Mean” value (Complete blood counts; P. yoelii-infected mice) was 6.23 fL, the “RBCs, Mean” value (Complete blood counts; P. yoelii-infected mice) was 3.83 M/ul and the “WBC, Mean” value (Complete blood counts; P. yoelii-infected mice) was 31.90 K/uL. The “hemoglobin, Mean” value (Complete blood counts; P. yoelii-infected mice) was 7.28 g/dL, the “platelets, Mean” value (Complete blood counts; P. yoelii-infected mice) was 234.3 K/ul and the complete blood counts (Complete blood counts; [6]) was “no effect”. For the same molecule, the “% RDW, Mean” value (Complete blood counts; uninfected mice) was 17.02%, the “% hematocrit, Mean” value (Complete blood counts; uninfected mice) was 38.48% and the “% lymphocytes, Mean” value (Complete blood counts; uninfected mice) was 66.56%. The “% monocytes, Mean” value (Complete blood counts; uninfected mice) was 11.71%, the “% neutrophils, Mean” value (Complete blood counts; uninfected mice) was 17.53% and the “MCHC, Mean” value (Complete blood counts; uninfected mice) was 32.72 g/dL. The “MCV, Mean” value (Complete blood counts; uninfected mice) was 43.14 fL, the “MPV, Mean” value (Complete blood counts; uninfected mice) was 5.74 fL and the “RBCs, Mean” value (Complete blood counts; uninfected mice) was 8.94 M/ul. The “WBC, Mean” value (Complete blood counts; uninfected mice) was 5.73 K/uL, the “hemoglobin, Mean” value (Complete blood counts; uninfected mice) was 12.56 g/dL and the “platelets, Mean” value (Complete blood counts; uninfected mice) was 573.0 K/ul. The “levels of parasite-specific IgG and IgG1 in mouse plasma” value [4] was “increased”, the “activation of human macrophages” value (human macrophages) was “activate” and the “epithelial erosion and leukocyte infiltration” value [5] was “reduced”.
